In publication PMC4526202, “Identification of a botanical inhibitor of intestinal diacylglyceride acyltransferase 1 activity via in vitro screening and a parallel, randomized, blinded, placebo-controlled clinical trial” (Nutrition & Metabolism, 2015):

How the values were obtained:
[1] = target: T1, DGAT1 (human small intestinal microsomal preparation) (Homo sapiens, UniProt O75907); assay: Cell-free DGAT1 enzyme assay (LC-MS readout); type: biochemical
T1 construct: using a human small intestinal microsomal preparation (BD Biosciences) as the enzyme source; tissue BD Biosciences; host or cells: human small intestine microsomes
T1 sequence (O75907 1-488): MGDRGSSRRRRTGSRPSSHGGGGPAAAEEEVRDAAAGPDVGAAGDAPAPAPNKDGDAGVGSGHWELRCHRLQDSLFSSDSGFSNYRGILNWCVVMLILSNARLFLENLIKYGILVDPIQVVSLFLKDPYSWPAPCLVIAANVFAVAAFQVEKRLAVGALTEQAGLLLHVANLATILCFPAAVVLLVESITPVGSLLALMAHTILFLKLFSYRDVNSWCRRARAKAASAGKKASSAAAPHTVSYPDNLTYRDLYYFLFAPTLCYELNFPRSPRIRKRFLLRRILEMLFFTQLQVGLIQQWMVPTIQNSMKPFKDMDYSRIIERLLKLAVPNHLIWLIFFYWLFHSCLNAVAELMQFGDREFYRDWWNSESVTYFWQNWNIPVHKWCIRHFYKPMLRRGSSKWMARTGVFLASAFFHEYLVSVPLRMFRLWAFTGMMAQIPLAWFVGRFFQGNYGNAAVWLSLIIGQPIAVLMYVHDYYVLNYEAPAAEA
Protocol: A cell-free DGAT1 assay was established using a human small intestinal microsomal preparation (BD Biosciences) as the enzyme source, and dioleoyl glycerol and palmitoleoyl Coenzyme A (CoA) as substrates (Sigma). Dioleoyl glycerol was dissolved in DMSO and diluted to 600 μM with 175 mM Tris–HCl and 100 mM MgCl2 (Tris/MgCl2) buffer. Palmitoleoyl CoA was dissolved in1.5 % acetone water solution (Fisher Scientific) to 150 μM. Microsomes were diluted to 25 μg/mL with 3.5 mg/mL BSA in Tris MgCl2 buffer. To a 1.5 mL tube, 67 μL of each palmitoleoyl CoA s and dioleoyl glycerol solutions (1:1 ratio) were added and the reaction was initiated by the addition of 67 μL of microsomes. The reaction was incubated in a 37 °C water bath for 60 min. The reaction was stopped by the addition of 1 mL of extraction solvent (isopropanol:dichloromethane (1:1 v/v) with 2.4 % formic acid) containing 1 μg/mL internal standard (glyceryl triolein, Sigma) to each tube and mixed by vortexing. The tubes were centrifuged at 10,000Xg for 3 min. 500 μL of the bottom phase was filtered through a Millex-HV syringe driven filter unit with tube outlet (PVDF @ 0.45 μm, Millipore) and transferred to LC-MS vials (12x32 mm glass screw neck, preslit cap & PTFE/silicone septa, Waters). Phytochemicals (Sigma), botanical extracts and positive control were diluted in DMSO and added to the reaction with the substrates at the desired concentration. The DGAT1 inhibitor A922500 (Tocris) was used as positive control at a concentration of 40 nM.
Refer to Table 3 for the mobile phase program. Solvent A: 0.1 % ammonium acetate in water; Solvent B: 0.1 % acetic acid in acetonitrile; Solvent C: 0.1 % acetic acid in isopropanol; all solvents were from Fisher Scientific. Injection volume: 10 μL. Column: Acquity BEH C18 1.7 μm, 2.1 x 50 mm. Effluent from the column was directed to the electrospray source of the mass spectrometer. Electrospray conditions: positive ion mode; cone voltage: […]; desolvation temperature: 450 °C; source temperature: 140 °C; nebulizer gas flow: 800 L/h; cone gas flow: 10 L/h. The mass spectrometer was operated at 20,000 resolving power and scans from m/z 100–1200 were acquired with a cycle time of 0.25 s. Selected ion chromatograms were plotted for the following: m/z 875 representing the ammoniated molecular ion for triacylglycerol reaction product containing 2 oleic acid and 1 palmitoleic acid moieties (C18:1/C18:1/C16:1); m/z 903 for the ammoniated molecular ion of glyceryl triolein (C18:1/C18:1/C18:1) internal standard. Quantification was determined based on area counts of the product relative to the internal standard.
Dose response curves for the cell-free DGAT1 assay were fitted with a log (inhibitor) vs. response, variable slope (four parameters) equation. Cellular DGAT1 assay data is shown as mean ± standard error of mean (SEM) and was analyzed by two-way ANOVA with Bonferroni's multiple comparison test. The primary outcome variable, serum TG level, is presented as mean ± SEM of baseline (fasting) subtracted change in serum TG after the HFM challenge. Area under the curve (AUC) was determined using the trapezoidal method. Comparisons between groups were made using unpaired t-test with Welch’s correction. A significant effect of investigational product was defined as P < 0.05. All statistical analyses were done using Prism-Graph Pad Software (San Diego, CA).

[2] = system: DGAT1 activity / TG synthesis in HEK293H cells; assay: Cellular DGAT1 assay: [14C]-glycerol incorporation into TG; type: cell-based, human
Description: Three different cell lines, human colorectal (HT-29), human embryonic kidney (HEK293H) and human hepatic (HEPG2) were screened for the presence of both DGAT1 and DGAT2 protein. The HEK293H cell line contained DGAT1 and little to no DGAT2 protein (Additional file 1: Figure S1), therefore, a cellular DGAT1 assay was established in HEK293H cells to measure the synthesis of TG. HEK293 cell line has previously been reported to contain only DGAT1 and not DGAT2, and has been validated as an in vitro model to determine TG synthesis via DGAT1 [34].
The DGAT1 activity was determined by measuring the incorporation of [^14C]-glycerol (1 μCi/mL, Perkin-Elmer) into [^14C]-TG during a 5 h incubation with 0.3 mM oleic acid/BSA in HEK293H cells. […] Silica gel spots corresponding to lipid species were scraped into scintillation vials and the incorporated radioactivity was quantified using a MicroBeta TriLux (Perkin-Elmer). […]
Dose response curves for the cell-free DGAT1 assay were fitted with a log (inhibitor) vs. response, variable slope (four parameters) equation. Cellular DGAT1 assay data is shown as mean ± standard error of mean (SEM) and was analyzed by two-way ANOVA with Bonferroni's multiple comparison test. […] Area under the curve (AUC) was determined using the trapezoidal method. […]

[3] = single phytochemicals, mean of duplicates

Molecule	IC50 [1, 3] [nM]	also measured
O=C(Nc1ccccc1)Nc1ccc(-c2ccc(C(=O)[C@@H]3CCC[C@H]3C(=O)O)cc2)cc1 [A-922500]		IC50 ([1]; synthetic inhibitor): 40 nM; IC50 ([1]; synthetic inhibitor, listed as A922500): 39.9 nM; oleic acid induced DGAT1 enzyme activity as measured by 14C label TG levels [2]: inhibited
Oc1cc(O)c2cc(O)c(-c3ccc(O)c(O)c3)[o+]c2c1 [Cyanidin Chloride]	3060	
O=C(O[C@@H]1Cc2c(O)cc(O)cc2O[C@@H]1c1cc(O)c(O)c(O)c1)c1cc(O)c(O)c(O)c1 [EGCG, Epigallocatechin Gallate]	667	
O=c1oc2c(O)c(O)cc3c(=O)oc4c(O)c(O)cc1c4c23 [Ellagic Acid]	3450	
O=C(O)c1cc(O)c(O)c(O)c1 [Gallic Acid]	2670	
Punicalagins	259	
